Measured values reported in patent US8674115B2, “CRTH2 modulators” (Ironwood Pharmaceuticals, Inc., priority 2009, dated 2014).

Key:
CRTH2 [1] = target: T1, CRTH2 (Homo sapiens, UniProt Q9Y5Y4); test: Human whole blood CD11b antagonist assay (CD11b expression in eosinophils); format: cell-based; set-up: endogenous in cells; host or cells: eosinophils in human whole blood; details: challenged with 10 nM 15R-Methyl-PGD2, read-out: CD11b Antag IC50(nM) [HuEos-HuWB-vs10nM15R]
T1 sequence (Q9Y5Y4 1-395): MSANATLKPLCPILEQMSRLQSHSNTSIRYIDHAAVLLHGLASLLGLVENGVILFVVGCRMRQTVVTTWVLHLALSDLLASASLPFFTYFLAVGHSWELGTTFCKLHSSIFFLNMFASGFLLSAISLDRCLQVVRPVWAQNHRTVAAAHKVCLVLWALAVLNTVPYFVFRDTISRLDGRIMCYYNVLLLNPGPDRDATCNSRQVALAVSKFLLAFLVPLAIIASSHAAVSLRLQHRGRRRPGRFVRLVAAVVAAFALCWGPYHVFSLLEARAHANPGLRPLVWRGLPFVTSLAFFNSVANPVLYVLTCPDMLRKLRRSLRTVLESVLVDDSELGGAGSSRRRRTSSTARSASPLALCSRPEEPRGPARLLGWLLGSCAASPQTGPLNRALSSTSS
Experimental: Human Whole Blood CD11B Antagonist Assay (Modified from Nicholson, et al. Pulmonary Pharmacology and Therapeutics: 20 (2007); 52-59).
The potential CRTH2 antagonist activity of certain compounds was tested in human whole blood using an assay that tests the ability of the compounds to block the CD11b expression in eosinophils by 15-R-methyl-PGD2. A CRTH2 antagonist should block CD11b expression by subsequently added 15-Methyl-PGD2. Human whole blood (200 μL) was incubated at 37° C. for 10 minutes in the presence of various concentrations of test compounds before being challenged with the agonist 15R-Methyl-PGD2 (10 nM). Reactions were terminated by the addition of ice-cold PBS+0.5% BSA+2 mMEDTA (1 mL) and centrifugation (300×g for 5 minutes at 4° C.) Cells were then incubated at 4° C. for 10 min in the presence of human IgG. Cells were then incubated for 30-45 min with a mixture of PE-Cy5-labeled mouse anti-human CD16 (10 ul; BD Biosciences) and FITC-labeled mouse anti-human CD11b (10 μL; Beckman Coulter.) After rinsing (1 mL ice-cold PBS+0.5% BSA+2 mMEDTA), red blood cells were lysed by the addition of 1 mL ice-cold H2O to the cell pellet for 30 sec-1 min immediately followed by the addition of 3.5% NaCl (300 μL.) Cells were then rinsed (2×-1 ml ice cold PBS+0.5% BSA+2 mMEDTA) and fixed in PBS containing 1% formaldehyde. The distribution of fluorescence intensities was measured by flow cytometry. Eosinophils were gated out on the basis of their granularity (high side scatter) and absence of CD-16. CD11b was then measured on this eosinophil population on the basis of fluorescence due to FITC.

CRTH2 [2] = target: T1, CRTH2; test: DPBS CD11b antagonist assay (CD11b expression in eosinophils); format: cell-based; details: challenged with 10 nM 15R-Methyl-PGD2, read-out: CD11b Antag IC50(nM) [HuEos-DPBS-vs10nM15R]
Experimental: DPBS CD11b Antagonist Assay.
The potential CRTH2 antagonist activity of certain compounds was tested using a CD11b expression assay using essentially the method described by Monneret et al. (J Pharmacol Exp Ther 304:349-55, 2003). Briefly, polymorphonuclear cells (0.5 ml; 10^6/ml cells) in PBS containing 0.9 mM CaCl2 and 0.5 mM MgCl2) were preincubated with various concentrations of test compounds at room temperature for 10 minutes before they were challenged with the agonist 15R-Methyl-PGD2 (10 nM). The incubations were terminated by the addition of ice-cold FACSFlow (BD Biosciences; Cat# 342003) and centrifugation (400 g for 5 minutes at 4° C.). The cells were then incubated for 30 minutes at 4° C. with a mixture of PE-labeled mouse anti-human VLA-4 (5 μl; BD Biosciences) and FITC-labeled mouse anti-human CD11b (10 μl; Beckman Coulter). The cells were then incubated with Optilyse C (0.25 ml; Beckman Coulter) for 15 minutes, centrifuged, and then fixed in PBS (0.4 ml; calcium and magnesium free) containing 1% formaldehyde. The distribution of fluorescence intensities among 60,000 cells was measured by flow cytometry. Eosinophils were gated out on the basis of their granularity (high side scatter) and labeling with VLA-4 (PE fluorescence). CD11b was then measured in the eosinophil region on the basis of fluorescence due to FITC. All data were corrected for the value obtained for the corresponding isotope control antibody.

IC50 (CRTH2 [1]) | IC50 (CRTH2 [2]) | Compound
> 500 nM | > 500 nM | CCOC(=O)Cn1c(C)c(C#N)c(Cc2ccccc2S(=O)(=O)N2CCCC2)c1C [I-63, Ethyl 2-(3-cyano-2,5-dimethyl-4-(2-(pyrrolidin-1-ylsulfonyl)benzyl)-1H-pyrrol-1-yl)acetate]
> 500 nM | 100 to 500 nM | Cc1nn(CC(=O)O)c(C)c1Cc1ccccc1S(=O)(=O)N1CCCC1 [I-72, 2-(3,5-dimethyl-4-(2-(pyrrolidin-1-ylsulfonyl)benzyl)-1H-pyrazol-1-yl)acetic acid]
